The target in data set [1] is T1, panel of 255 (vepafestinib) or 256 (all other inhibitors) recombinant kinases (Homo sapiens, UniProt P41743).
T1 construct: purchased Carna Biosciences
The data set can be described thus: Kinase selectivity profiling at a single concentration (Carna Biosciences). The class given is biochemical. Particulars: 22 nM.

A short description of data set [2]: in vivo. The note with it: male, BALB/c, mouse, in vivo, po, 50 mg/kg.
For data set [3], the target named is T2, KDR (Homo sapiens, UniProt P35968).
T2 construct: purchased Carna Biosciences
T2 sequence (P35968 20-1356): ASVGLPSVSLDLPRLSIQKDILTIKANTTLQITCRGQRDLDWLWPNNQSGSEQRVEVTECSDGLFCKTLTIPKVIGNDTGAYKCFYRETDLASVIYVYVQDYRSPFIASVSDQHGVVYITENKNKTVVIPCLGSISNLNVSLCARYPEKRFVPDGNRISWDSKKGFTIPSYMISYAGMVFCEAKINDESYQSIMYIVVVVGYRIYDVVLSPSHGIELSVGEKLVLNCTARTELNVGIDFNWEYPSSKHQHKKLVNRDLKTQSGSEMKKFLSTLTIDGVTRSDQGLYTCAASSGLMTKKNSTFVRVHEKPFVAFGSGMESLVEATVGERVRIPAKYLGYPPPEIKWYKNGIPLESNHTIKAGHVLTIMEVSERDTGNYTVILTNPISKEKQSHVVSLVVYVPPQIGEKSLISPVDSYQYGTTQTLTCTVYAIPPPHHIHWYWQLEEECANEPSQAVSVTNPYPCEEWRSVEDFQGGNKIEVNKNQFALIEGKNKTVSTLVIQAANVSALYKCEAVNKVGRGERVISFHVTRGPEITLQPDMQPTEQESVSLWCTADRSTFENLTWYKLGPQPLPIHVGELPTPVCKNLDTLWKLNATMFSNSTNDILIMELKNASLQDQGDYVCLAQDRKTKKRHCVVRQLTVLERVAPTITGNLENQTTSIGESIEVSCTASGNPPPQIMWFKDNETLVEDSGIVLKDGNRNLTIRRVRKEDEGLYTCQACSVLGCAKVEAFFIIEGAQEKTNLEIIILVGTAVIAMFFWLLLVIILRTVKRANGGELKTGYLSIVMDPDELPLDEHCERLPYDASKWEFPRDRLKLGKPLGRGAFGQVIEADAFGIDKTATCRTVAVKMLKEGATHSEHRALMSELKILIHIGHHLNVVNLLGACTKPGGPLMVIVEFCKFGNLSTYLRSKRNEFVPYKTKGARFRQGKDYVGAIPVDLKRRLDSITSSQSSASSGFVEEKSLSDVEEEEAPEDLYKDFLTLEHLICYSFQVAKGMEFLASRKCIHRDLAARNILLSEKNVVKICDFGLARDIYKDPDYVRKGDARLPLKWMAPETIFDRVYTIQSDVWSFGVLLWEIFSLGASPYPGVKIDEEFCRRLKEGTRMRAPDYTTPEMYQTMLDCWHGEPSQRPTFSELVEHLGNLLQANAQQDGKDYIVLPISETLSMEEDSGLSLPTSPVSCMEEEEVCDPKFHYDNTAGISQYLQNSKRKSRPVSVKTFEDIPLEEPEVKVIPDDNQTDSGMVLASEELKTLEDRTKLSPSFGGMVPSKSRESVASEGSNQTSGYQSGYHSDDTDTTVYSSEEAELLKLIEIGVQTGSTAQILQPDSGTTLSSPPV
The data set can be described thus: Dose-response IC50 on off-target kinases. The class given is biochemical.

The subject of data set [4] is RET^G810R phosphorylation in Ba/F3 KIF5B–RET^G810R allograft tumors. Nature of the data set: Western blotting of tumors 1 h after dosing (target engagement). The class given is in vivo, mice. The note with it: 10 mg per kg and 30 mg per kg.
The target of data set [5] is T3, panel of 255 (vepafestinib) or 256 (all other inhibitors) recombinant kinases (Homo sapiens, UniProt Q9P286).
T3 construct: purchased Carna Biosciences
T3 sequence (Q9P286 whole entry): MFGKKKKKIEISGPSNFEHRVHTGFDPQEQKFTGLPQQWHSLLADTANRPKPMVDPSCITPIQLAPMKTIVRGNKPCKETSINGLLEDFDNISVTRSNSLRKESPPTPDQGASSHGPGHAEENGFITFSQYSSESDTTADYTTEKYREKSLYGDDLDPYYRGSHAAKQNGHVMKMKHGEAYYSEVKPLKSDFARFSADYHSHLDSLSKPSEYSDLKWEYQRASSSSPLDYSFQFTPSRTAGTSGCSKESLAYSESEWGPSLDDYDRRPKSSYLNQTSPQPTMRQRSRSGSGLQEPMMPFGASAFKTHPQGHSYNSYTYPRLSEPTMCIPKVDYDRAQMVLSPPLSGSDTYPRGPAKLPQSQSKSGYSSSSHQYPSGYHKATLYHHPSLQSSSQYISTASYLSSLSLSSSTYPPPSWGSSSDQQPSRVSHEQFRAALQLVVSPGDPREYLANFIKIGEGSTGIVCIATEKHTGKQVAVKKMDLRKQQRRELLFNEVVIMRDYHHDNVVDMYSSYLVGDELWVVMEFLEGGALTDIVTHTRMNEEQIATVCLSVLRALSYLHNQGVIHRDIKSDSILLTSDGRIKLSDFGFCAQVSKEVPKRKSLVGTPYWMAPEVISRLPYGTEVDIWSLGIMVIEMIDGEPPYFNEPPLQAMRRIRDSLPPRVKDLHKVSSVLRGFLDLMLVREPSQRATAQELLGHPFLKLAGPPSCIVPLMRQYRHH
Nature of the data set: Kinase selectivity profiling at a single concentration (Carna Biosciences). The class given is biochemical. Particulars: 23 nM.

pIC50: −log10 of the molar value.

T1 sequence (P41743 whole entry): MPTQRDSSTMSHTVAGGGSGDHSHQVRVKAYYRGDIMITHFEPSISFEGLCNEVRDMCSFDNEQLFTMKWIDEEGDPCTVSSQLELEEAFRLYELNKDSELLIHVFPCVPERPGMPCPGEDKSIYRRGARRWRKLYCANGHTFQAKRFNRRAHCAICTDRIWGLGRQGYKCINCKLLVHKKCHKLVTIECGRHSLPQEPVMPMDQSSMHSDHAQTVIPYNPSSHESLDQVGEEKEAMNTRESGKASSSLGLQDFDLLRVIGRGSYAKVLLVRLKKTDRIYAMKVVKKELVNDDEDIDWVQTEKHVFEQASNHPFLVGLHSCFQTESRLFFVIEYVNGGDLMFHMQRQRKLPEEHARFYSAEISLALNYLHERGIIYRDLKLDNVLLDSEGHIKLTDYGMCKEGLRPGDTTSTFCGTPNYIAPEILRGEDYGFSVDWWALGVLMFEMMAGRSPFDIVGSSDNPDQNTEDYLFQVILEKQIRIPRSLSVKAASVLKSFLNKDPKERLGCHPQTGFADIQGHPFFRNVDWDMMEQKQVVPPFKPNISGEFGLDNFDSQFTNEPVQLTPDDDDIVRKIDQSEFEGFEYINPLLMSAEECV

Consider `COc1ccc(CN2C3CC2CN(c2ccc(-c4cc(OCC(C)(C)O)cn5ncc(C#N)c45)cn2)C3)cn1` [Selpercatinib], for which the “% Inhibiton PKCι” value in data set [1] is on record as 12.7%.

`COCc1ccc(NC(=O)c2c(C#CCN3CCOCC3)n(C3(C)CC3)c3ncnc(N)c23)cc1` [Vepafestinib, 4-amino-N-[4-(methoxymethyl)phenyl]-7-(1-methylcyclopropyl)-6-[3-(morpholin-4-yl)prop-1-yn-1-yl]-7H-pyrrolo[2,3-d]pyrimidine-5-carboxamide]: in data set [2], the Kp turned out to be 1.8 and the Kp uu came to 1.3. Moreover, the negative-log IC50 (pIC50) in data set [3] is 6.76. Further, the “inhibition of RET^G810R phosphorylation in tumors” value in data set [4] is on record as “completely inhibited”. Further, in data set [5], the “% Inhibiton PAK5” value is 10.8%.

The values above are taken from publication PMC10518257 (Nature Cancer, 2023).
